Assay results from publication PMC7701510, “Identification of HN252 as a potent inhibitor of protein phosphatase PPM1B” (Journal of Cellular and Molecular Medicine, 2020).
Where a chain is given by its changes, count along the chain named. “Also recorded” adds a separate entry of the source.

Tests used:
PPM1B = target: T1, PPM1B (Homo sapiens, UniProt O75688); assay: Fluorescence quenching assay (fluorescence titration); format: binding; conditions: PPM1B 8 μM, 25°C, excitation 280 nm, emission 332 nm; read-out: dissociation constant Kd
T1 construct: inferred from pET-28a vector and Ni-NTA purification; made in house; host or cells: Escherichia coli BL21
T1 sequence (O75688 1-479): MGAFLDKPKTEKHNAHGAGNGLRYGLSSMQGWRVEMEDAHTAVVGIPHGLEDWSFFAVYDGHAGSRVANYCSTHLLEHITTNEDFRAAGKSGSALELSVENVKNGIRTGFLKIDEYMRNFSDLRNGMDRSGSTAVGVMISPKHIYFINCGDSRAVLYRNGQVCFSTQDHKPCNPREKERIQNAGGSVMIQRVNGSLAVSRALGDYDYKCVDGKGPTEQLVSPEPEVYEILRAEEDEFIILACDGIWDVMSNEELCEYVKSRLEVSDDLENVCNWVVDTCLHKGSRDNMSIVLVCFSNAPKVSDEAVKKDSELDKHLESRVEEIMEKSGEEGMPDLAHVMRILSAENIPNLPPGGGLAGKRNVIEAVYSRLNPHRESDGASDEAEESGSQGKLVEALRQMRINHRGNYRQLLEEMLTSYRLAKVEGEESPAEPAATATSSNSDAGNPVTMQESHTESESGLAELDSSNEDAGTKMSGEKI
Method: The interaction between PPM1B recombinant proteins and compound HN252 was determined by fluorescence titration as previously described. ^20 PPM1B proteins were dialysed against PBS and incubated with different concentrations of HN252. The fluorescent quenching was conducted at 25°C, and fluorescence spectra were recorded by Cytation 5 Multi‐Mode Plate Reader (BioTek) using excitation at 280 nm and emission at 332 nm. The dissociation constant (Kd) of HN252 to PPM1B was calculated as previously described. ^20

HL7702 cells = assay: Phospho Explorer Antibody Microarray, HN252 treatment; format: cell-based; conditions: 2-hours exposure, HN252 5 μM
PPM1A = target: T2, PPM1A (Homo sapiens, UniProt P35813); assay: pNPP hydrolysis phosphatase assay (selectivity panel); format: biochemical
T2 sequence (P35813 1-382): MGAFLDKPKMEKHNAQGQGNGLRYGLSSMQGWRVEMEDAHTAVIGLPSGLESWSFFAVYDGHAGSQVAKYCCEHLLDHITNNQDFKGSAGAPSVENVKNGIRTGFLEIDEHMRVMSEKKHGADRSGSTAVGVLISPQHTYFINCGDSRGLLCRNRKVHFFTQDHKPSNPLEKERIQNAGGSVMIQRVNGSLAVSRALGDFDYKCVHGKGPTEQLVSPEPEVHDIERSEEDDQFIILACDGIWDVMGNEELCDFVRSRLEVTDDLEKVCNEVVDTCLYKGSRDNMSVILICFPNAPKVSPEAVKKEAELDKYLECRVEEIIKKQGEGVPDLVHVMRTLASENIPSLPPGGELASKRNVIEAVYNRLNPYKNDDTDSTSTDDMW

PPM1B-R33K = target: T3, PPM1B-R33K (Homo sapiens, UniProt O75688, R33K); assay: pNPP hydrolysis assay with PPM1B mutant; format: biochemical; conditions: pNPP substrate, pH 7.0, 37°C
T3 construct: inferred from pET-28a vector and Ni-NTA purification; made in house; host or cells: Escherichia coli BL21
T3 sequence (O75688 1-479 R33K): T1 sequence (O75688 1-479) with R33K
Method: (§1) Escherichia coli BL21 strain was transformed with pET‐28a bacterial expression vector harbouring PPM1B and its mutants. ^17 The fusion proteins were induced to be expressed with 0.5 mM isopropyl‐β‐D‐thiogalactoside (IPTG) and purified from bacterial lysate by Ni‐NTA chromatographic matrices (Qiagen) and AKTA FPLC (GE Healthcare Life Sciences) using a Superdex Increase 200 column.
(§2) The kinetic assays of PPM1B were carried out at 37°C in 0.1 M acetic acid buffer (50 mM Tris, 40 mM Mn^2+, pH 7.0). The p‐nitrophenyl phosphate (pNPP, Sigma) was used as the substrate which could be conveniently measured at 405 nm. Reactions were started by addition of pNPP to a reaction mixture containing PPM1B (0.4 μM PPM1B, final concentration) and various concentrations of HN252 and stopped by addition of 0.5 M EDTA (pH 10.0) after an appropriate time. The Km value of PPM1B towards pNPP hydrolysis (3.6 mM for pNPP) was used to determine the IC50. The IC50 values, the inhibition constant Ki and inhibition pattern were evaluated as previously described. ^18 The kinetic assays of HN252 towards to other protein phosphatases were carried out as previously described. ^19

PPM1B-K170A = target: T4, PPM1B-K170A (Homo sapiens, UniProt O75688, K170A); assay: pNPP hydrolysis assay with PPM1B mutant; format: biochemical; conditions: pNPP substrate, pH 7.0, 37°C
T4 construct: inferred from pET-28a vector and Ni-NTA purification; made in house; host or cells: Escherichia coli BL21
T4 sequence (O75688 1-479 K170A): T1 sequence (O75688 1-479) with K170A
Method: as §1, §2

## Nc1cc(-c2ccc(-c3ccc(O)c(O)c3)cc2)ccc1C(=O)O [HN252]
PPM1B
  Kd: 42.3 ± 6.47 µM
HL7702 cells
  number of proteins with enhanced phosphorylation (1.5-fold vs control) also elevated in PPM1B knockdown cells: 30
PPM1A; Lineweaver-Burk plot, pNPP hydrolysis, pH 7.0, 37°C, 0.4 μM PPM1A
  inhibition pattern: non-competitive inhibition; also recorded: non‐competitive inhibitor
PPM1A; pNPP as substrate
  IC50: 0.72 ± 0.22 µM
PPM1B-R33K
  IC50: 58.6 ± 10 µM
PPM1B-K170A
  IC50: 30.1 ± 5.7 µM
